The test system of data set [1] is influenza A/Puerto Rico/8/34 (H1N1). Format: in vivo, BALB/c mice.
Data set [2] in a line: in vitro. The note with it: dog.
Data set [3] relates to influenza A virus strain (PR8). The note with it: cited from earlier work.
For a further data set, the system named is polio virus. The following applies: cited from earlier work.
Data set [4] deals with herpes simplex type 1 (HSV-1) virus. The following applies: cited from earlier work.
The subject of data set [5] is vesicular stomatitis virus (VSV). The following applies: cited from earlier work.
The test system of data set [6] is alpha coronavirus 229E (HCoV-229E). The data set can be described thus: inhibition of virus-induced CPE, CoV229E in MRC-5 cells (XTT). Format: cell-based. How it is done:
The antiviral compound Remdesivir served as positive control.
Lefamulin (as acetate) was evaluated using different treatment conditions of 4 h, 1 h or 0 h incubation prior to virus addition and addition 1 h after infection For this particular set of experiments, coronavirus was diluted 1:200 in assay medium and added at 100 μL/well to achieve approximately 90% cell killing in the untreated virus control wells (MOI of 0.001).

Data set [7] in a line: in vitro. The note with it: human.
Data set [8] deals with human rhinovirus strain HRV16 strain 11757. The data set can be described thus: inhibition of virus-induced CPE, human rhinovirus in H1-HeLa cells. It is filed as cell-based. The following applies: Human rhinovirus sp., 4 hour pretreatment. How it is done:
Cell viability determination as well as EC50 and TC50 calculations were performed as described in Examples 6 and 8.

Data set [9] can be described thus: in vitro. The following applies: human. The source holds these as a separate data set.
For data set [10], the system named is mice challenged with lipopolysaccharide (LPS). In words: modified LPS induced lung neutrophilia model, BALF cell counts 24 h post LPS (Example 4).
A short description of data set [11]: cell viability of uninfected Huh7 cells. The note with it: human, TC50, Example 13 (Zika assay).
For data set [12], the system named is respiratory syncytial virus (RSV ALONG). The data set can be described thus: inhibition of virus-induced CPE, RSV ALONG in HEp2 cells. The following applies: Example 10; investigated strain of RSV A.
The subject of data set [13] is respiratory syncytial virus (RSV B18537). In words: inhibition of virus-induced CPE, RSV B18537 in HEp2 cells. The following applies: Example 10; investigated strain of RSV B.
Data set [14] has as its system human respiratory syncytial virus (strain RSVA2). The data set can be described thus: inhibition of virus-induced CPE, RSVA2 in HEp2 cells (XTT). A general note: Formazan colour is commonly taken as a measure of viable cells.
For a further data set, the system named is MRC-5 cells. The following applies: Example 6.
In data set [15] the test system is human respiratory syncytial virus (strain RSVA2). The note with it: Example 8.
Data set [16] is described as follows: in vitro. The following applies: human, TC50.
The subject of a further data set is HEp2 cells. The data set can be described thus: cell viability of uninfected HEp2 cells (XTT). The following applies: Example 8.

Where two headings read alike, the source gives them in different places.

`CCOC(=O)C1=C[C@@H](OC(CC)CC)[C@H](NC(C)=O)[C@@H](N)C1` [Oseltamivir, reference compound]: the “lung viral titres (TCID50 on MDCK cells)” value in [1] (Lefamulin at both doses, Oseltamivir positive control, Day 3 and Day 6, vs vehicle treated control) was “reduced”. Moreover, in [1] (positive control treatment), the bodyweight loss entry is listed as “reduction” and the clinical scores result was “reduction”. Moreover, the CC50 in the data set “in vitro [2]” is over 200000 nM.
Turning to `C=C[C@]1(C)C[C@@H](OC(=O)CO)[C@]2(C)[C@H](C)CC[C@]3(CCC(=O)[C@H]32)[C@@H](C)[C@@H]1O` [Pleuromutilin], the “concentration with antiviral activity” value in data set [3] is recorded as 2 mg/mL. In addition, in the data set with polio virus, the “antiviral activity for polio virus” value is “did not show antiviral activity”. Moreover, the “concentration that conferred a 50% protection of the cytopathic effect induced by HSV-1 (CPE50)” value in [4] was 15 µg/mL. Moreover, the EC50 in data set [4] (read-out: concentration that conferred a 50% protection of the cytopathic effect induced by HSV-1 (CPE50)) was 40000 nM. In addition, in data set [5], the “activity against vesicular stomatitis virus (VSV)” value is “activity”.
`CCC(CC)COC(=O)[C@H](C)N[P@](=O)(OC[C@H]1O[C@@](C#N)(c2ccc3c(N)ncnn23)[C@H](O)[C@@H]1O)Oc1ccccc1` [Remdesivir, reference compound]: the EC50 in data set [6] (Human coronavirus 229E, MRC5) came out at 110 nM. The same compound had a CC50 in the data set “in vitro [7]” of over 5000 nM.
Take `CCOC(=O)/C=C/[C@H](C[C@@H]1CCNC1=O)NC(=O)[C@@H](CC(=O)[C@@H](NC(=O)c1cc(C)on1)C(C)C)Cc1ccc(F)cc1` [Rupintrivir]: the EC50 in data set [8] is 4.9 nM; in [8] (MOI 0.0005, Lefamulin as acetate), 4.9 nM. Also, the CC50 in “in vitro [9]” is over 100 nM.
In the case of `C=C(CC(=O)[O-])C(=O)[O-].[Na+].[Na+]` [Sodium itaconate, reference compound], in data set [10] (55 mg/kg single SC dose 30 min prior to IN LPS), the BALF cell counts result is on record as “some reduction”.
In turn, `CC(C)OC(=O)[C@H](C)N[P@](=O)(OC[C@H]1O[C@@H](n2ccc(=O)[nH]c2=O)[C@](C)(F)[C@@H]1O)Oc1ccccc1` [Sofosbuvir, reference compound] came in with a CC50 at 6 days in data set [11] of over 10000 nM.
As for `Cc1ccc(CCCO)c(NCc2ccc3nc(NCCCN4CCOCC4)n(Cc4nc(C)ccc4O)c3c2)c1` [TMC353121], the EC50 is 0.01 nM in data set [12]; 0.01 nM in [13]; 0.6 nM in data set [14] (Example 8, HEp2 cells, 4 h incubation prior to virus, MOI 0.001, 6 days post-infection, Lefamulin as acetate, Tiamulin as fumarate); 0.04 nM in data set [14] (Example 9, MOI 0.0004); 0.3 nM in data set [14] (Example 9, MOI 0.0008); 0.2 nM in [14] (Example 9, MOI 0.001). This compound registered an EC50 in data set [14] (Example 9, MOI 0.003) of 0.2 nM.
As a reminder, the viability is a per cent measure of how many cells are alive, often set against a control. For the compound `C=C[C@]1(C)C[C@@H](OC(=O)CSCCN(CC)CC)[C@]2(C)[C@H](C)CC[C@]3(CCC(=O)[C@H]32)[C@@H](C)[C@@H]1O` [Tiamulin, reference compound], the “reduction of viral CPE” value is listed as 10.53% in [6] (10 µM), 81.68% in data set [6] (50 μM), 16.76% in data set [15] (10 μM) and 43.28% in data set [15] (50 μM). Also, the EC50 in data set [6] (Example 6, MRC-5 cells, 4 h incubation prior to virus, MOI 0.001, 6 days post-infection, Lefamulin as acetate, Tiamulin as fumarate, read-out: EC50) was 24400 nM; in data set [14] (human respiratory syncytial virus, HEp-2, Example 8, HEp2 cells, 4 h incubation prior to virus, MOI 0.001, 6 days post-infection, Lefamulin as acetate, Tiamulin as fumarate) it was over 67900 nM. Moreover, the “cytotoxic effect on the viability of the cell control” value in the data set on MRC-5 cells (10 μM) is given as “no cytotoxic effect”; with MRC-5 cells (50 μM), “cytotoxic effect”. Also, the results for the CC50 at 6 days in “in vitro [7]” and in the data set “in vitro [16]” were 62900 nM and 67900 nM, respectively. Also, the viability in the data set with HEp2 cells (10 μM) is 84%; with HEp2 cells (50 μM) it was 70.0%.
With Lefamulin acetate, the “cell count in BALF” value in data set [10] (70 mg/kg single SC dose 30 min prior to IN LPS) is recorded as “reduction”.

(Values after patent US20230174472A1, “THERAPEUTIC USE OF PLEUROMUTILINS” (priority 2020, published 2023).)
